Data on 3 molecules can be found in patent publication US20260315446A1, “ANTIFUNGAL COMPOUNDS AND USES THEREOF” (priority 2023, published 2026).

Entries after “also recorded” stand apart in the source; their conditions may differ.

Data set [1] concerns T follicular helper (Tfh) cells. Nature of the data set: In vivo immunosuppression, T follicular helper cells (Example 3). Conditions: 8 days. On the procedure: The in vivo immunosuppressive effect of JH-FK-08 was assessed by studying T follicular helper (Tfh) cell production in mice. Tfh cells play a role in protection against and response to fungal infections (see, Wong G K, et al., 1998. J Antibiot 51:487-491; Cruz M C, et al., 1999. Mol Cell Biol 19:4101-4112). For this study, immunocompetent C57BL/6 mice received 8 days of twice-daily dosing of vehicle, FK506 (2.5 mg/kg), or JH-FK-08 (20 or 40 mg/kg). Twenty-four hours after the first dose, mice were immunized with NP-OVA to induce an immune response. Cells were analyzed 7 days post immunization, and cell types were analyzed by flow cytometry (FIG. 15B).
Cell surface staining of single cell suspensions was performed in staining buffer (PBS supplemented with 2 mM EDTA and 0.5% BSA). Anti-FcγR (93; Biolegend) was treated to block the Fe receptor before surface staining of primary cells isolated from lymph nodes of NP-OVA-immunized mice. Cells were stained with fixable viability dye (eBioscience) before surface staining to exclude dead cells from analysis. For the detection of intracellular cytokines, cells were additionally incubated with phorbol 12-myristate 13-acetate and ionomycin in the presence of GolgiStop (BD Biosciences) during the final 4 h of incubation. For intracellular staining, cells were fixed and permeabilized with Fixation/Permeabilization Buffer (eBioscience). Flow cytometric analysis was performed utilizing BD FACSCantoII or BD LSRFortessaX20 (BD Biosciences) and FlowJo software (BD Biosciences).
Groups of five female C57BL/6 mice were treated twice daily for 8 days with vehicle, FK506 (2.5 mg/kg), JH-FK-08 (20 mg/kg), or JH-FK-08 (40 mg/kg) via i.p. injection. Twenty-four hours after the first dose, animals were immunized with NP-OVA (100 μg) in alum via subcutaneous injection. Seven days post immunization, mice were sacrificed, and draining lymph nodes were harvested for the analysis of Tfh cells and GC B cells by flow cytometry.

Data set [2] shares this test system. Nature of the data set: In vivo immunosuppression, T follicular helper cells (Example 1). The note with it: daily i.p., FK506 5 mg/kg or JH-FK-05 60 mg/kg; day 7. Further details: species or system mouse (C57BL/6). As for the experimental part:
Based on the in vitro evidence of reduced immunosuppressive activity of JH-FK-05, it was hypothesized that this reduction would translate into reduced immunosuppression in an in vivo model. The murine model for immunosuppression measures the T cell-dependent proliferation of two immune cell subtypes in response to immunization with an antigen. Animals were treated daily via intraperitoneal (i.p.) injection with vehicle, 5 mg/kg FK506, or 60 mg/kg JH-FK-05, beginning on day −1 and ending on day 7. […] On day 0, animals were immunized with NP-OVA to stimulate T cell-dependent signaling that would result in proliferation of T follicular helper (Tfh) cells and germinal center (GC) B cells. Animals were sacrificed on day 7, and the proportions of Tfh and GC B cells in the lymph nodes were measured. […]
Groups of 6 female C57BL/6 mice (Jackson Laboratory) were treated daily by intraperitoneal (i.p.) injection with about 100 μL vehicle, 5 mg/kg FK506, or 60 mg/kg JH-FK-05 beginning on day −1. […] Mice were treated and monitored daily until they were sacrificed on day 7. Draining lymph nodes were harvested on day 7, and the populations of T follicular helper cells and GC B cells were analyzed by flow cytometry. Tfh and GC B cells were measured from T Cell Receptor β (TCRβ^+) CD4^+CD44^hi cells and TCRβ^−CD19^+ cells, respectively.

As for `C=CCC1C=C(C)CC(C)CC(OC)C2OC(O)(C(=O)C(=O)N3CCCCC3C(=O)OC(C(C)=CC3CCC(O)C(OC)C3)C(C)C(O)CC1=O)C(C)CC2OC` (centres unmarked) [FK506, reference compound], in data set [1] (FK506 2.5 mg/kg i.p. twice daily, 2.5 mg/kg), the “production of Tfh cells” value is “significantly reduced; also recorded: significantly inhibits Tfh cell production at 1/16 of the dose of JH-FK-08”. In addition, the “proliferation/presence of Tfh cells” value in data set [2] is recorded as “significantly reduced the proliferation”.

For the molecule `CC[C@@H]1/C=C(\C)C[C@H](C)C[C@H](OC)[C@H]2O[C@@](O)(C(=O)C(=O)N3CCCC[C@H]3C(=O)O[C@H](/C(C)=C/[C@@H]3CC[C@@H](O)[C@H](OC)C3)[C@H](C)[C@@H](O)C/C1=N/NC(C)=O)[C@H](C)C[C@@H]2OC` [JH-FK-05], in data set [2], the “proliferation/presence of Tfh cells” value was “did not reduce the presence of either cell type and was statistically indistinguishable from the vehicle treatment”.

Take `CC[C@@H]1/C=C(\C)C[C@H](C)C[C@H](OC)[C@H]2O[C@@](O)(C(=O)C(=O)N3CCCC[C@H]3C(=O)O[C@H](/C(C)=C/C3CC[C@@H](O)[C@H](OC)C3)[C@H](C)[C@@H](O)C/C1=N/NC(=O)OC)[C@H](C)C[C@@H]2OC` (some centres unmarked) [JH-FK-08]: the “production of Tfh cells” value is listed as “no significant effect on the percent of Tfh cells produced compared to vehicle” in data set [1] (JH-FK-08 20 mg/kg i.p. twice daily) and “production of Tfh cells was reduced” in data set [1] (JH-FK-08 40 mg/kg i.p. twice daily).
